According to PubChem BioAssay (NCI):
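Here, GI50 denotes the concentration required for 50% inhibition of growth. Definition used: TGI = concentration required for complete inhibition of growth.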

Assays:
Assay in all cases: inhibition of tumour cell growth, NCI panel, 384-well format
KM12 colon = system: KM12 colon
SK-MEL-28 melanoma = system: SK-MEL-28 melanoma
NCI-H460 NSCLC = system: NCI-H460 NSCLC
NCI-H322M lung = system: NCI-H322M lung
SF-268 CNS = system: SF-268 CNS
SK-MEL-2 melanoma = system: SK-MEL-2 melanoma
TK-10 renal = system: TK-10 renal
T-47D breast = system: T-47D breast
OVCAR-4 ovarian = system: OVCAR-4 ovarian
NCI-H23 lung = system: NCI-H23 lung
SN12C renal = system: SN12C renal
UACC-62 melanoma = system: UACC-62 melanoma
CAKI-1 renal = system: CAKI-1 renal
HCT-15 colon = system: HCT-15 colon
UACC-257 melanoma = system: UACC-257 melanoma
HCC-2998 colon = system: HCC-2998 colon
SF-295 CNS = system: SF-295 CNS
M14 melanoma = system: M14 melanoma
OVCAR-5 ovarian = system: OVCAR-5 ovarian
MOLT-4 leukemia = system: MOLT-4 leukemia
NCI-H226 lung = system: NCI-H226 lung
RXF 393 renal = system: RXF 393 renal
IGROV1 ovarian = system: IGROV1 ovarian
A549 NSCLC = system: A549 NSCLC
HT29 colon = system: HT29 colon
MCF7 breast = system: MCF7 breast
MALME-3M melanoma = system: MALME-3M melanoma
HOP-92 NSCLC = system: HOP-92 NSCLC
OVCAR-3 ovarian = system: OVCAR-3 ovarian
MDA-MB-468 breast = system: MDA-MB-468 breast
SW-620 colon = system: SW-620 colon
RPMI-8226 leukemia = system: RPMI-8226 leukemia
COLO 205 colon = system: COLO 205 colon
MDA-MB-231 breast = system: MDA-MB-231 breast
PC-3 prostate = system: PC-3 prostate
NCI/ADR-RES ovarian = system: NCI/ADR-RES ovarian
HL-60(TB) leukemia = system: HL-60(TB) leukemia
SNB-75 CNS = system: SNB-75 CNS
U251 glioblastoma = system: U251 glioblastoma
EKVX NSCLC = system: EKVX NSCLC
SK-OV-3 ovarian = system: SK-OV-3 ovarian
HS 578T breast = system: HS 578T breast
A498 renal = system: A498 renal
MDA-MB-435 melanoma = system: MDA-MB-435 melanoma
BT-549 breast = system: BT-549 breast
SR leukemia = system: SR leukemia
HOP-62 NSCLC = system: HOP-62 NSCLC
SNB-19 CNS = system: SNB-19 CNS
OVCAR-8 ovarian = system: OVCAR-8 ovarian
NCI-H522 lung = system: NCI-H522 lung
DU-145 prostate = system: DU-145 prostate
SF-539 CNS = system: SF-539 CNS
SK-MEL-5 melanoma = system: SK-MEL-5 melanoma
786-0 renal = system: 786-0 renal
CCRF-CEM leukemia = system: CCRF-CEM leukemia
ACHN renal = system: ACHN renal

## O=P(O)(O)C(O)(Cn1ccnc1)P(=O)(O)O
KM12 colon
  GI50: > 100 µM
  TGI: > 100 µM
SK-MEL-28 melanoma
  GI50: > 100 µM
  TGI: > 100 µM
NCI-H460 NSCLC
  GI50: > 100 µM
  TGI: > 100 µM
NCI-H322M lung
  GI50: > 100 µM
  TGI: > 100 µM
SF-268 CNS
  GI50: > 100 µM
  TGI: > 100 µM
SK-MEL-2 melanoma
  GI50: > 100 µM
  TGI: > 100 µM
TK-10 renal
  GI50: > 100 µM
  TGI: > 100 µM
T-47D breast
  GI50: > 100 µM
  TGI: > 100 µM
OVCAR-4 ovarian
  GI50: > 100 µM
  TGI: > 100 µM
NCI-H23 lung
  GI50: > 100 µM
  TGI: > 100 µM
SN12C renal
  GI50: > 100 µM
  TGI: > 100 µM
UACC-62 melanoma
  GI50: > 100 µM
  TGI: > 100 µM
CAKI-1 renal
  GI50: > 100 µM
  TGI: > 100 µM
HCT-15 colon
  GI50: > 100 µM
  TGI: > 100 µM
UACC-257 melanoma
  GI50: > 100 µM
  TGI: > 100 µM
HCC-2998 colon
  GI50: > 100 µM
  TGI: > 100 µM
SF-295 CNS
  GI50: > 100 µM
  TGI: > 100 µM
M14 melanoma
  GI50: > 100 µM
  TGI: > 100 µM
OVCAR-5 ovarian
  GI50: > 100 µM
  TGI: > 100 µM
MOLT-4 leukemia
  GI50: > 100 µM
  TGI: > 100 µM
NCI-H226 lung
  GI50: > 100 µM
  TGI: > 100 µM
RXF 393 renal
  GI50: > 100 µM
  TGI: > 100 µM
IGROV1 ovarian
  GI50: > 100 µM
  TGI: > 100 µM
A549 NSCLC
  GI50: > 100 µM
  TGI: > 100 µM
HT29 colon
  GI50: > 100 µM
  TGI: > 100 µM
MCF7 breast
  GI50: > 100 µM
  TGI: > 100 µM
MALME-3M melanoma
  GI50: > 100 µM
  TGI: > 100 µM
HOP-92 NSCLC
  GI50: > 100 µM
  TGI: > 100 µM
OVCAR-3 ovarian
  GI50: > 100 µM
  TGI: > 100 µM
MDA-MB-468 breast
  GI50: > 100 µM
  TGI: > 100 µM
SW-620 colon
  GI50: > 100 µM
  TGI: > 100 µM
RPMI-8226 leukemia
  GI50: > 100 µM
  TGI: > 100 µM
COLO 205 colon
  GI50: > 100 µM
  TGI: > 100 µM
MDA-MB-231 breast
  GI50: > 100 µM
  TGI: > 100 µM
PC-3 prostate
  GI50: > 100 µM
  TGI: > 100 µM
NCI/ADR-RES ovarian
  GI50: > 100 µM
  TGI: > 100 µM
HL-60(TB) leukemia
  GI50: > 100 µM
  TGI: > 100 µM
SNB-75 CNS
  GI50: > 100 µM
  TGI: > 100 µM
U251 glioblastoma
  GI50: > 100 µM
  TGI: > 100 µM
EKVX NSCLC
  GI50: > 100 µM
  TGI: > 100 µM
SK-OV-3 ovarian
  GI50: > 100 µM
  TGI: > 100 µM
HS 578T breast
  GI50: > 100 µM
  TGI: > 100 µM
A498 renal
  GI50: > 100 µM
  TGI: > 100 µM
MDA-MB-435 melanoma
  GI50: > 100 µM
  TGI: > 100 µM
BT-549 breast
  GI50: > 100 µM
  TGI: > 100 µM
SR leukemia
  GI50: > 100 µM
  TGI: > 100 µM
HOP-62 NSCLC
  GI50: > 100 µM
  TGI: > 100 µM
SNB-19 CNS
  GI50: > 100 µM
  TGI: > 100 µM
OVCAR-8 ovarian
  GI50: > 100 µM
  TGI: > 100 µM
NCI-H522 lung
  GI50: > 100 µM
  TGI: > 100 µM
DU-145 prostate
  GI50: > 100 µM
  TGI: > 100 µM
SF-539 CNS
  GI50: > 100 µM
  TGI: > 100 µM
SK-MEL-5 melanoma
  GI50: > 100 µM
  TGI: > 100 µM
786-0 renal
  GI50: > 100 µM
  TGI: > 100 µM
CCRF-CEM leukemia
  GI50: > 100 µM
  TGI: > 100 µM
ACHN renal
  GI50: > 100 µM
  TGI: > 100 µM
